In patent publication US12533377B2 (OXYMO TECHNOLOGIES INC., priority 2016, dated 2026):
Read-outs that look alike come from different tables or passages of the source. Marks after values point to notes of the source that are not given here.

Tests used:
HSV-1 [1] = assay: Model 1: Mixture 1 on cells infected with HSV-1, qPCR of viral genome in BHK-21; format: cell-based, Herpes simplex 1
Text: (§1) Symp. Quant. […] Model 1:

HSV-1 [2] = assay: Model 2: Mixture 1 on cells not yet infected with HSV-1, qPCR of viral genome in BHK-21; format: cell-based, Herpes simplex 1
Text: as §1

HSV-1 [3] = assay: Model 3: Mixture 1 on cells not yet infected and on free HSV-1, qPCR of viral genome in BHK-21; format: cell-based, Herpes simplex 1
Text: as §1

HSV-1 [4] = assay: Model 4: Mixture 1 on HSV-1 before infection, qPCR of viral genome in BHK-21; format: cell-based, Herpes simplex 1
Text: as §1

BHK-21 line [5] = assay: Model 1: cytotoxicity on the BHK-21 line, qPCR of 18S gene; format: cell-based; details: ACV 1 mg/L, 8 h post-contact of 2 mins
Text: as §1

BHK-21 line [6] = assay: Model 2: cytotoxicity on the BHK-21 line, qPCR of 18S gene; format: cell-based; details: ACV 1 mg/L, 8 h post-contact of 2 mins
Text: as §1

BHK-21 line [7] = assay: Model 3: cytotoxicity on the BHK-21 line, qPCR of 18S gene; format: cell-based; details: ACV 1 mg/L, 8 h post-contact of 2 mins
Text: as §1

BHK-21 line [8] = assay: Model 4: cytotoxicity on the BHK-21 line, qPCR of 18S gene; format: cell-based; details: ACV 10^3 mg/L, 8 h post-contact of 2 mins
Text: as §1

[9] = tested on: immature erythrocytes (reticulocytes)
Description: The morbidity, the mortality, the weight of the animals and the clinical parameters (temperature, skin, hair, eyes, mucous membranes, secretions and excretions, respiratory and neurological function, gait and posture) were noted. 36 h to 48 h after the second treatment, the blood of the animals was collected and analyzed in flow cytometry (toxicity control: reduction of the proportion of immature erythrocytes (CD-71-positive). The proportion of micro-nucleated immature erythrocytes (reticulocytes) was evaluated on 4,000 observations per blood sample. Each rat population (n=10) for each tested substance represents 40,000 observations (Table 5).

[10] = tested on: chorioallantoic membrane of a fertilized hen egg; assay: Ocular irritation test HET-CAM
Description: The ocular irritation test used was the substitution test HET-CAM (Hen's Egg Test—Chorioallantoic Membrane), published in the Official Journal dated 26 Dec. 1996. It is recommended by ICCVAM.
At 0.5, 2 and 5 mins post-contact, the three following criteria are observed and scored: hemorrhage, coagulation and hyperemia.

[11] = control Line + (PBS + HSV), ACV 1 mg/L, 8 h post-contact of 2 mins
[12] = 100 mg/kg intraperitoneal, female
[13] = 100 mg/kg intraperitoneal, male
[14] = 150 mg/kg intraperitoneal, female
[15] = 150 mg/kg intraperitoneal, male

Nc1nc2c(ncn2COCCO)c(=O)[nH]1 [ACV, acyclovir]
Reduction of the HSV-1 replication at t 8 h (HSV-1 [1]; contact 2 min, ACV 10^3 μg/L): −12% | HSV (%), replication of HSV-1 by qPCR (HSV-1 [1]; [11]): 76 (1) % | Reduction of the HSV-1 replication at t 8 h (HSV-1 [2]; contact 2 min, ACV 10^3 μg/L): −1% | HSV (%), replication of HSV-1 by qPCR (HSV-1 [2]; [11]): 61 (1) % | Reduction of the HSV-1 replication at t 8 h (HSV-1 [3]; contact 2 min, ACV 10^3 μg/L): −6% | HSV (%), replication of HSV-1 by qPCR (HSV-1 [3]; [11]): 86 (1) % | Reduction of the HSV-1 replication at t 8 h (HSV-1 [4]; contact 2 min, [ACV]: 1 g/L): −52^# % | HSV (%), replication of HSV-1 by qPCR (HSV-1 [4]; control Line + (PBS + HSV), ACV 10^3 mg/L, 8 h post-contact of 2 mins): 54% | 18S (%), multiplication of the BHK-21 line by qPCR (BHK-21 line [5]; control Line + (PBS + HSV)): 118 (1) % | 18S (%), multiplication of the BHK-21 line by qPCR (BHK-21 line [5]; control Line + (PBS − HSV)): 108 (1) % | 18S (%), multiplication of the BHK-21 line by qPCR (BHK-21 line [6]; control Line + (PBS + HSV)): 62 (1) % | 18S (%), multiplication of the BHK-21 line by qPCR (BHK-21 line [6]; control Line + (PBS − HSV)): 57 (1) % | 18S (%), multiplication of the BHK-21 line by qPCR (BHK-21 line [7]; control Line + (PBS + HSV)): 92 (1) % | 18S (%), multiplication of the BHK-21 line by qPCR (BHK-21 line [7]; control Line + (PBS − HSV)): 111 (1) % | 18S (%), multiplication of the BHK-21 line by qPCR (BHK-21 line [8]; control Line + (PBS + HSV)): 111% | 18S (%), multiplication of the BHK-21 line by qPCR (BHK-21 line [8]; control Line + (PBS − HSV)): 97%

CCOS(C)(=O)=O [Methanesulfonate, ethyl methanesulfonate]
Micro-nucleated reticulocytes (%) [9, 12]: 0.48 ± 0.16 % | Reticulocytes (%) [9, 12]: 1.86 ± 0.25% | Micro-nucleated reticulocytes (%) [9, 13]: 0.68 ± 0.35 % | Reticulocytes (%) [9, 13]: 1.41 ± 0.32% | Micro-nucleated reticulocytes (%) [9, 14]: 0.59 ± 0.26 % | Reticulocytes (%) [9, 14]: 0.45 ± 0.33% | Micro-nucleated reticulocytes (%) [9, 15]: 0.81 ± 0.48 % | Reticulocytes (%) [9, 15]: 1.33 ± 0.34%

[Na+].[OH-] [NaOH 0.1M, NaOH]
IS of the positive substances of reference [10]: 15±3

CCCCCCCCCCCCOS(=O)(=O)[O-].[Na+] [1% SDS, sodium dodecyl sulfate]
IS of the positive substances of reference [10]: 10±2

O=P1(N(CCCl)CCCl)NCCCO1 (stereo not shown) [Cyclophosphamide, cyclophosphamide]
Micro-nucleated reticulocytes (%) ([9]; 5 mg/kg intravenous, female): 0.40 ± 0.13% | Reticulocytes (%) ([9]; 5 mg/kg intravenous, female): 2.41 ± 0.54% | Micro-nucleated reticulocytes (%) ([9]; 5 mg/kg intravenous, male): 0.56 ± 0.17% | Reticulocytes (%) ([9]; 5 mg/kg intravenous, male): 3.99 ± 0.49% | Micro-nucleated reticulocytes (%) ([9]; 10 mg/kg intravenous, female): 1.02 ± 0.26 % | Reticulocytes (%) ([9]; 10 mg/kg intravenous, female): 1.30 ± 0.43% | Micro-nucleated reticulocytes (%) ([9]; 10 mg/kg intravenous, male): 1.62 ± 0.29% | Reticulocytes (%) ([9]; 10 mg/kg intravenous, male): 1.95 ± 0.59%
